Experimental data as given in the SangsterLogP compilation.

Assay: method code SF-AS, from DOI: 10.1021/acs.jmedchem.6b01691, PMID: 28051859

Row | SMILES | logP
1 | FC(F)Sc1ccc(Cl)cc1 | 3.24
2 | Fc1ccc(SC(F)F)cc1 | 2.92
3 | Cc1ccc(OC(F)F)cc1 | 2.88
4 | Fc1cccc(OC(F)F)c1 | 2.59
5 | COc1ccc(C(F)(F)F)cc1 | 2.87
6 | Fc1ccc(OC(F)F)cc1 | 2.47
7 | COc1ccc(F)cc1 | 2.14
8 | CC(=O)Nc1ccc(SC(F)F)cc1 | 2.42
9 | Cc1cccc(OC(F)F)c1 | 2.87
10 | FC(F)Oc1ccc(C(F)(F)F)cc1 | 2.76
11 | COc1ccc(SC(F)F)cc1 | 3.11
12 | FC(F)Sc1ccccc1 | 2.89
13 | COc1cccc(C(F)(F)F)c1 | 2.79
14 | COc1ccc(C(=O)c2ccccc2)cc1 | 2.69
15 | COc1cccc(F)c1 | 2.43
16 | FC(F)Sc1ccc(Br)cc1 | 2.96
17 | COc1ccc(OC(F)F)cc1 | 2.35
18 | COc1ccc(C)cc1 | 2.56
19 | FC(F)Oc1cccc(C(F)(F)F)c1 | 2.69

Results, then the molecule that gave them:

Row | logP | SMILES
20 | 2.77 | CSc1ccc(F)cc1
21 | 3.41 | Cc1ccc(SC(F)F)cc1
22 | 3.01 | CSc1ccc(C)cc1
23 | 3.01 | CSc1ccc(Cl)cc1
24 | 2.78 | CSc1ccc(Br)cc1
25 | 2.54 | O=[N+]([O-])c1ccc(SC(F)F)cc1
26 | 2.6 | CSc1ccccc1
27 | 1.98 | O=[N+]([O-])c1ccc(OC(F)F)cc1
28 | 2.64 | CSc1ccc([N+](=O)[O-])cc1
29 | 2.66 | COc1ccc(SC)cc1
